Laboratory results reported in patent publication US20040260084A1, “Novel c-3 s/o-and s/n formaldehe acetal derivatives of cephalosporins and their use as antibotics” (priority 2001, published 2004).

Columns and labels:
[1] = Blood serum stability, agar diffusion test with Escherichia coli TEM 1; format: in vitro ADME; settings: sterile bovine serum (OXOID), 37° C.
Method: The stability in blood serum was determined microbiologically using agar diffusion test with Escherichia coli TEM 1. The compounds I were incubated with sterile bovine serum (OXOID) at 37° C. At 0 h, 1 h, 2 h and 4 h intervals aliquot samples were spotted and remaining amounts of active antibiotic were calculated from the inhibition diameters (18-30 mm) in comparison with those (15-30 mm) obtained with 30 μg, 15 μg, 7.5μ and 3.75 μg of antibiotic.

E. coli 3981 TEM-1 = test: In vivo activity, experimental systemic infection in mice; settings: Escherichia coli
Method: In vivo activity (ED50) was determined. Mice were infected intraperitoneally with ca. […] of E. coli 3981 TEM-1. Untreated animals died within 48 h after infection. Compounds were administered by oral or subcutaneous route a first time 10 min after infection and a second time 4 h later. The 50% effective dose (ED50) was calculated by the Spearman-Kärber method from the percentages of animals surviving to day 7 at each dose.

[2] = Chemical stability, half-life of hydrolysis by UV spectroscopy; format: physicochemical; settings: 37° C.
Method: The half-lives (h) of hydrolysis was determined at 37° C. by UV spectroscopy in physiological phosphate buffer and in physiological NaCl solution containing 0.01 N HCl.

[3] = tested on: Escherichia coli DSM 1103; test: MIC, agar dilution (DIFCO Bacto Nutrient Agar); format: cell-based
Method: (§1) The plates were then inoculated with a bacterial suspension obtained by diluting an overnight culture (37° C.) in DIFCO Bacto Nutrient Broth (pH 6.8) with sterile 1% NaCl (1:1000) using a 19 pin inoculator (Mast Diagnostics). MIC's […] were determined 18 h after incubation at 37° C.
(§2) Inoculum effect after inoculation with an non-diluted overnight culture (in comparison to Table 1). MIC's (μ/ml) were determined 18 h after incubation at 37° C.

Staph. aureus DSM 1104 = test: MIC, agar dilution (DIFCO Bacto Nutrient Agar); format: cell-based
Method: as §1, §2

Staph. aureus 25768 = test: MIC, agar dilution (DIFCO Bacto Nutrient Agar); format: cell-based
Method: as §1, §2

Staph. aureus resistant = test: MIC, agar dilution (DIFCO Bacto Nutrient Agar); format: cell-based
Method: as §1, §2

Escherichia coli TEM 1 = test: MIC, agar dilution (DIFCO Bacto Nutrient Agar); format: cell-based
Method: as §1, §2

[4] = pH 2, physiological NaCl solution containing 0.01 N HCl
[5] = pH 7.4, physiological phosphate buffer
[6] = Escherichia coli DSM 1103, inoculum ca. 10^4, 18 h at 37° C.
[7] = Escherichia coli DSM 1103, inoculum ca. 10^7 (non-diluted overnight culture), 18 h at 37° C.
[8] = Staph. aureus DSM 1104, inoculum ca. 10^4, 18 h at 37° C.
[9] = Staph. aureus DSM 1104, inoculum ca. 10^7 (non-diluted overnight culture), 18 h at 37° C.
[10] = Staph. aureus 25768, inoculum ca. 10^4, 18 h at 37° C.
[11] = Staph. aureus 25768, inoculum ca. 10^7 (non-diluted overnight culture), 18 h at 37° C.
[12] = inoculum ca. 10^4, 18 h at 37° C.
[13] = inoculum ca. 10^7 (non-diluted overnight culture), 18 h at 37° C.
[14] = Escherichia coli TEM 1, inoculum ca. 10^4, 18 h at 37° C.
[15] = Escherichia coli TEM 1, inoculum ca. 10^7 (non-diluted overnight culture), 18 h at 37° C.

## COCSC1=C(C(=O)[O-])N2C(=O)[C@@H](NC(=O)/C(=N\OC)c3csc(N)n3)[C@H]2SC1.[K+] [Cephalosporin 1a, potassium (6R,7R)-7-[(Z)-2-(2-amino-thiazol-4-yl)-2-methoximino-acetylamino]-3methoxymethylthio-8-oxo-5-thia-1-aza-bicyclo[4.2.0]oct-2-ene-2-carboxylate]
[1]
  half-life: 0.2 days
E. coli 3981 TEM-1; 3981TEM1, po
  ED50: 8.35 mg/kg
E. coli 3981 TEM-1; 3981TEM1, sc
  ED50: 0.84 mg/kg
[2]; [4]
  half-life: 15.6 days
[2]; [5]
  half-life: 16.9 days
[3]; [6]
  MIC: 1 pig/ml
[3]; [7]
  MIC: 1 μ/ml
Staph. aureus DSM 1104; [8]
  MIC: 0.5 pig/ml
Staph. aureus DSM 1104; [9]
  MIC: 0.5 μ/ml
Staph. aureus 25768; [10]
  MIC: 16 pig/ml
Staph. aureus 25768; [11]
  MIC: 32 μ/ml
Staph. aureus resistant; [12]
  MIC: 2 pig/ml
Staph. aureus resistant; [13]
  MIC: 4 μ/ml
Escherichia coli TEM 1; [14]
  MIC: 2 pig/ml
Escherichia coli TEM 1; [15]
  MIC: 2 μ/ml

## COCSC1=C(C(=O)[O-])N2C(=O)[C@@H](NC(=O)/C(=N\OCC(=O)[O-])c3csc(N)n3)[C@H]2SC1.[K+].[K+] [Cephalosporin 1b, dipotassium (6R,7R)-7-[(Z)-2-(2-amino-thiazol-4-yl)-2-carboxy-methoximino-acetylamino]-3-methoxymethylthio-8-oxo-5-thia-1-aza-bicyclo[4.2.0]oct-2-ene-2-carboxylate]
[1]
  half-life: 0.113 days
[2]; [4]
  half-life: 16.6 days
[2]; [5]
  half-life: 17.5 days
[3]; [6]
  MIC: 2 pig/ml
[3]; [7]
  MIC: 2 μ/ml
Staph. aureus DSM 1104; [8]
  MIC: 4 pig/ml
Staph. aureus DSM 1104; [9]
  MIC: 4 μ/ml
Staph. aureus 25768; [10]
  MIC: >64 pig/ml
Staph. aureus 25768; [11]
  MIC: >64 μ/ml
Staph. aureus resistant; [12]
  MIC: 16 pig/ml
Staph. aureus resistant; [13]
  MIC: 32 μ/ml
Escherichia coli TEM 1; [14]
  MIC: 2 pig/ml
Escherichia coli TEM 1; [15]
  MIC: 2 μ/ml

## COCSC1=C(C(=O)O)N2C(=O)[C@@H](NC(=O)[C@H](N)c3ccccc3)[C@H]2SC1 [Cephalosporin 1c, (2′R,6R,7R)-7-(2′amino-2′-phenylacetamino)-3-methoxymethylthio-8-oxo-5-thia-1-aza-bicyclo[4.2.0]oct-2-ene-2-carboxylic acid]
[2]; [4]
  half-life: 7.12 days
[2]; [5]
  half-life: 7.54 days
[3]; [6]
  MIC: 4 pig/ml
[3]; [7]
  MIC: 4 μ/ml
Staph. aureus DSM 1104; [8]
  MIC: 0.2 pig/ml
Staph. aureus DSM 1104; [9]
  MIC: 0.5 μ/ml
Staph. aureus 25768; [10]
  MIC: 8 pig/ml
Staph. aureus 25768; [11]
  MIC: 32 μ/ml
Staph. aureus resistant; [12]
  MIC: 2 pig/ml
Staph. aureus resistant; [13]
  MIC: 8 μ/ml
Escherichia coli TEM 1; [14]
  MIC: >64 pig/ml
Escherichia coli TEM 1; [15]
  MIC: 32 μ/ml
